From patent US10752624B2, “Kinase inhibitors” (Origenis GmbH, priority 2012, dated 2020)

Columns and labels:
LRRK2 = LRRK2 (Homo sapiens, UniProt Q5S007); experiment: LRRK2-LRRK2 G2019S-Assay (LanthaScreen Eu Kinase Binding Assay); details: 5 nM LRRK2, 10 nM tracer 236, 2 nM EU-Anti-GST antibody, 1 h at RT; read-out: LRRK2 Activities: IC50
Outline: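 In a TR-FRET tracer displacement assay, LRRK2 or its mutants at 5 nM were mixed with 2 nM Eu-anti-GST antibody and 10 nM tracer 236 in kinase buffer A for 1 h at RT. The 665/615 nm emission ratio was plotted against inhibitor concentration, and IC50 came from a variable-slope sigmoidal fit.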

SYK kinase = target: T1, SYK kinase (Homo sapiens, UniProt P43405); experiment: SYK Assay (OMNIA Kinase Assay, SOX peptide fluorescence); assay type: biochemical; details: 1 mM ATP, 10 μM Omnia Peptide Substrate Tyr 7, 30° C., readings for 30 minutes; read-out: SYK Activities: IC50
T1 construct: purchased Invitrogen, Carlsbad
Experimental: In the assay OMNIA® KINASE ASSAY by Invitrogen Corporation (Carlsbad) the effect of invention of a compound on the phosphorylation is determined by measurement of fluorescence intensity of a chelation-enhanced fluorophore called SOX. Upon phosphorylation of the peptide by the kinase of interest, Mg2+ is chelated to form a bridge between the SOX moiety and the phosphate group that is transferred to the specific tyrosine on the peptide. The fluorescence intensity is directly proportional to the amount of peptide phosphorylation.
To the wells of an 384 well small volume plate (Greiner, Frickenhausen) are added (i) the compound under test in 5% DMSO/distilled water (2 μl), (ii) 16 μl of the master mix containing ATP, DTT, Kinase Reaction Buffer, Omina Peptide Substrate Tyr 7 resulting in a final concentration of 1 mM ATP, 0.2 mM DTT and 10 μM Peptide Substrate.
The Master Mix and the assay plate was incubated to reaction temperature before the measurement (30° C.). The reaction was started with addition of (iii) 2 μl 4 μg/ml SYK kinase (Invitrogen, Carlsbad). During measurement fluorescence intensity readings were collected using a TECAN M1000 at a wavelength of λex 360/λem 485 nm every 30 s for 30 minutes. The reaction velocity was plotted versus the inhibitor concentration to determine the IC50 using XLFit 5.0 (IDBS, Guildford) to fit to a sigmoidal dose response curve.

LRRK2, sequence (Q5S007 970-2527 limits assumed): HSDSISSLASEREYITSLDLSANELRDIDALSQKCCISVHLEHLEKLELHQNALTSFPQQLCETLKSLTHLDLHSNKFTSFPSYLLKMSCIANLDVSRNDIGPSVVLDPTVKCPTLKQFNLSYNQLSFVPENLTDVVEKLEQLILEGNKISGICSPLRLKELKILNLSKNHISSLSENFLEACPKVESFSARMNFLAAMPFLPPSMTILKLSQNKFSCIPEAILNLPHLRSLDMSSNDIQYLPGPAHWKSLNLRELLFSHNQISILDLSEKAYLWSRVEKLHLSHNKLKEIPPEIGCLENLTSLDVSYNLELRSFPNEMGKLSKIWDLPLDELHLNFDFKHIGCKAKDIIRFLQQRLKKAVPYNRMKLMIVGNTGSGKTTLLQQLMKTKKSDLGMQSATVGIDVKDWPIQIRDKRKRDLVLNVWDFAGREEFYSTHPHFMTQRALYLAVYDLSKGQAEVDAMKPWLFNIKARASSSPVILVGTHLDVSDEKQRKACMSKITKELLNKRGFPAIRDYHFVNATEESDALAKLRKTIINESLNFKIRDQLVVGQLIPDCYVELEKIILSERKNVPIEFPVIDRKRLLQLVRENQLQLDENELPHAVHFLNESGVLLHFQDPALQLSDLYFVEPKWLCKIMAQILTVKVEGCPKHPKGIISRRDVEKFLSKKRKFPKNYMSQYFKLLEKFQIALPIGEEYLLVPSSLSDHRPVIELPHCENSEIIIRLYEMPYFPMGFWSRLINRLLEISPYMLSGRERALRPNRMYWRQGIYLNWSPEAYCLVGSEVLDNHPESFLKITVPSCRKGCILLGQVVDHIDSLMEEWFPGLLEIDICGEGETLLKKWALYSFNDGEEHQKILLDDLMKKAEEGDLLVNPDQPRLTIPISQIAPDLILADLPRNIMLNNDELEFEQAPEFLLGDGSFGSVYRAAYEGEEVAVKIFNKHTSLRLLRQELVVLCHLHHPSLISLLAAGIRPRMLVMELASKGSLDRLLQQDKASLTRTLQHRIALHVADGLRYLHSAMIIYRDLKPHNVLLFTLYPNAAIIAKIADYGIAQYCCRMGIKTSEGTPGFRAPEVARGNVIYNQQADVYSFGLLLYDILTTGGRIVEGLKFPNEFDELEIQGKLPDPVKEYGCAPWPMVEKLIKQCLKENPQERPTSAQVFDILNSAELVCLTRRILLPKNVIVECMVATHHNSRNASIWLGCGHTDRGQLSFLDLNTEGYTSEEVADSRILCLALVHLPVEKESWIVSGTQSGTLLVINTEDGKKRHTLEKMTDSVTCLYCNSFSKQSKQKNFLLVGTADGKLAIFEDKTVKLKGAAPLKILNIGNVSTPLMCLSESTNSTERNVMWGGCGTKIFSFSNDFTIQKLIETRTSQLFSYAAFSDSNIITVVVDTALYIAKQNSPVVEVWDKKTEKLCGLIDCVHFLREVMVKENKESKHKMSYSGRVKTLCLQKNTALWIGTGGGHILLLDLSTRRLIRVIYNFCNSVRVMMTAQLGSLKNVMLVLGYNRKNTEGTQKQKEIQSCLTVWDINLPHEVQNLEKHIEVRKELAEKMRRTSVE

IC50 (LRRK2)	IC50 (SYK kinase)	Compound
10 to 100 nM	< 10 nM	CN1CCN(C2CCN(c3ccc(Nc4nc5ccc(S(C)(=O)=O)cc5c5cn[nH]c45)cc3)CC2)CC1 [Example 67, N-(4-(4-(4-methylpiperazin-1-yl)piperidin-1-yl)phenyl)-8-(methylsulfonyl)-3H-pyrazolo[3,4-c]quinolin-4-amine]
10 to 100 nM	100 to 1000 nM	CC(C)(C#N)n1cc(Nc2nc3cc(S(C)(=O)=O)ccc3c3cn[nH]c23)cn1 [Example 191, 2-methyl-2-(4-((7-(methylsulfonyl)-3H-pyrazolo[3,4-c]quinolin-4-yl)amino)-1H-pyrazol-1-yl)propanenitrile]
< 10 nM	100 to 1000 nM	COc1nn(C(C)C)cc1Nc1nc2cccc(OC)c2c2cn[nH]c12 [Example 224, N-(1-isopropyl-3-methoxy-1H-pyrazol-4-yl)-9-methoxy-3H-pyrazolo[3,4-c]quinolin-4-amine]
< 10 nM	10 to 100 nM	CS(=O)(=O)c1ccc2nc(Nc3cnn(C4CCOCC4)c3)c3[nH]ncc3c2c1 [Example 143, 8-(methylsulfonyl)-N-(1-(tetrahydro-2H-pyran-4-yl)-1H-pyrazol-4-yl)-3H-pyrazolo[3,4-c]quinolin-4-amine]
10 to 100 nM	10 to 100 nM	COc1ccc(Nc2nc3ccc(S(C)(=O)=O)cc3c3c[nH]nc23)cc1NC(C)=O [Example 332, N-(2-methoxy-5-((8-(methylsulfonyl)-2H-pyrazolo[3,4-c]quinolin-4-yl)amino)phenyl)acetamide]
10 to 100 nM	10 to 100 nM	CC(=O)N1CCC(n2cc(Nc3nc4cc(S(C)(=O)=O)ccc4c4cn[nH]c34)cn2)CC1 [Example 168, 1-(4-(4-((7-(methylsulfonyl)-3H-pyrazolo[3,4-c]quinolin-4-yl)amino)-1H-pyrazol-1-yl)piperidin-1-yl)ethan-1-one]
10 to 100 nM	100 to 1000 nM	CS(=O)(=O)c1ccc2nc(Nc3ccc(C(=O)N4CCOCC4)c(F)c3)c3[nH]ncc3c2c1 [Example 175, (2-fluoro-4-((8-(methylsulfonyl)-3H-pyrazolo[3,4-c]quinolin-4-yl)amino)phenyl)(morpholino)methanone]
< 10 nM	10 to 100 nM	CS(=O)(=O)c1ccc2nc(Nc3cnn(CCO)c3)c3[nH]ncc3c2c1 [Example 186, 2-(4-((8-(methylsulfonyl)-3H-pyrazolo[3,4-c]quinolin-4-yl)amino)-1H-pyrazol-1-yl)ethan-1-ol]
10 to 100 nM	10 to 100 nM	COc1ccc2nc(Nc3cnn(C(C)C)c3)c3[nH]ncc3c2c1 [Example 292, N-(1-isopropyl-1H-pyrazol-4-yl)-8-methoxy-3H-pyrazolo[3,4-c]quinolin-4-amine]
10 to 100 nM	10 to 100 nM	COC(C)(C)Cn1cc(Nc2nc3ccc(S(C)(=O)=O)cc3c3cn[nH]c23)cn1 [Example 315, N-(1-(2-methoxy-2-methylpropyl)-1H-pyrazol-4-yl)-8-(methylsulfonyl)-3H-pyrazolo[3,4-c]quinolin-4-amine]
10 to 100 nM	100 to 1000 nM	COc1cc(C(=O)N2CCOCC2)ccc1Nc1nc2ccc(S(C)(=O)=O)cc2c2cn[nH]c12 [Example 196, (3-methoxy-4-((8-(methylsulfonyl)-3H-pyrazolo[3,4-c]quinolin-4-yl)amino)phenyl)(morpholino)methanone]
< 10 nM	100 to 1000 nM	COc1cccc2nc(Nc3cnn(CCO)c3)c3[nH]ncc3c12 [Example 199, 2-(4-((9-methoxy-3H-pyrazolo[3,4-c]quinolin-4-yl)amino)-1H-pyrazol-1-yl)ethan-1-ol]
10 to 100 nM	10 to 100 nM	CS(=O)(=O)c1ccc2nc(Nc3ccc(C(=O)N4CCOCC4)cc3)c3[nH]ncc3c2c1 [Example 64, (4-((8-(methylsulfonyl)-3H-pyrazolo[3,4-c]quinolin-4-yl)amino)phenyl)(morpholino)methanone]
10 to 100 nM	100 to 1000 nM	CS(=O)(=O)c1ccc2c(c1)nc(Nc1ccc(N3CCOCC3)cc1)c1[nH]ncc12 [Example 101, 7-(methylsulfonyl)-N-(4-morpholinophenyl)-3H-pyrazolo[3,4-c]quinolin-4-amine]
10 to 100 nM	< 10 nM	CC(C)(C#N)n1cc(Nc2nc3ccc(S(C)(=O)=O)cc3c3cn[nH]c23)cn1 [Example 172, 2-methyl-2-(4-((8-(methylsulfonyl)-3H-pyrazolo[3,4-c]quinolin-4-yl)amino)-1H-pyrazol-1-yl)propanenitrile]
10 to 100 nM	< 10 nM	CC(=O)N1CCN(c2ccc(Nc3nc4ccc(S(C)(=O)=O)cc4c4cn[nH]c34)cc2)CC1 [Example 62, 1-(4-(4-((8-(methylsulfonyl)-3H-pyrazolo[3,4-c]quinolin-4-yl)amino)phenyl)piperazin-1-yl)ethan-1-one]
100 to 1000 nM	10 to 100 nM	CS(=O)(=O)c1ccc2c(c1)nc(Nc1ccc(N3CCN(CCO)CC3)cc1)c1[nH]ncc12 [Example 303, 2-(4-(4-((7-(methylsulfonyl)-3H-pyrazolo[3,4-c]quinolin-4-yl)amino)phenyl)piperazin-1-yl)ethan-1-ol]
10 to 100 nM	100 to 1000 nM	COc1cccc2nc(Nc3ccc(N4CCN(C)CC4)nc3)c3[nH]ncc3c12 [Example 79, 9-methoxy-N-(6-(4-methylpiperazin-1-yl)pyridin-3-yl)-3H-pyrazolo[3,4-c]quinolin-4-amine]
< 10 nM	100 to 1000 nM	C=C(C)Cn1cc(Nc2nc3cccc(OC)c3c3cn[nH]c23)cn1 [Example 258, 9-methoxy-N-(1-(2-methylallyl)-1H-pyrazol-4-yl)-3H-pyrazolo[3,4-c]quinolin-4-amine]
10 to 100 nM	10 to 100 nM	CS(=O)(=O)c1ccc2nc(Nc3ccc(N4CCC(O)CC4)cc3)c3[nH]ncc3c2c1 [Example 316, 1-(4-((8-(methylsulfonyl)-3H-pyrazolo[3,4-c]quinolin-4-yl)amino)phenyl)piperidin-4-ol]
10 to 100 nM	10 to 100 nM	CN1CCN(C(=O)c2ccc(Nc3nc4ccc(S(C)(=O)=O)cc4c4cn[nH]c34)cc2)CC1 [Example 65, (4-methylpiperazin-1-yl)(4-((8-(methylsulfonyl)-3H-pyrazolo[3,4-c]quinolin-4-yl)amino)phenyl)methanone]
100 to 1000 nM	10 to 100 nM	CN1CCC(n2cc(Nc3nc4cc(S(C)(=O)=O)ccc4c4cn[nH]c34)cn2)CC1 [Example 167, N-(1-(1-methylpiperidin-4-yl)-1H-pyrazol-4-yl)-7-(methylsulfonyl)-3H-pyrazolo[3,4-c]quinolin-4-amine]
< 10 nM	10 to 100 nM	COc1cccc2nc(Nc3cnn(C4CCN(C)CC4)c3)c3[nH]ncc3c12 [Example 118, 9-methoxy-N-(1-(1-methylpiperidin-4-yl)-1H-pyrazol-4-yl)-3H-pyrazolo[3,4-c]quinolin-4-amine]
100 to 1000 nM	100 to 1000 nM	COCCn1cc(Nc2nc3cc(SC)ccc3c3cn[nH]c23)cn1 [Example 171, N-(1-(2-methoxyethyl)-1H-pyrazol-4-yl)-7-(methylthio)-3H-pyrazolo[3,4-c]quinolin-4-amine]
< 10 nM	10 to 100 nM	CC(C)Cn1cc(Nc2nc3ccc(S(C)(=O)=O)cc3c3cn[nH]c23)cn1 [Example 187, N-(1-isobutyl-1H-pyrazol-4-yl)-8-(methylsulfonyl)-3H-pyrazolo[3,4-c]quinolin-4-amine]
